From patent US20220030867A1 (priority 2018, published 2022)

Experiments:
[1] = tested on: Botryotinia fuckeliana (Botrytis cinerea); assay: Botryotinia fuckeliana (Botrytis cinerea) / liquid culture (gray mould); type: cell-based; settings: growth inhibition photometrically 3-4 days after application, vs untreated control
Description: Botryotinia fuckeliana (Botrytis cinerea)/Liquid Culture (Gray Mould)
(§1) Conidia of the fungus from cryogenic storage are directly mixed into nutrient broth (Vogels broth). After placing a (DMSO) solution of test compound into a microtiter plate (96-well format), the nutrient broth containing the fungal spores is added. The test plates are incubated at 24° C. and the inhibition of growth is determined photometrically 3-4 days after application.

[2] = tested on: Magnaporthe grisea (Pyricularia oryzae); assay: microbe, parasite or virus in culture; type: cell-based; settings: read-out: control of Magnaporthe grisea
[3] = tested on: Glomerella lagenarium (Colletotrichum lagenarium); assay: Glomerella lagenarium (Colletotrichum lagenarium) / liquid culture (anthracnose); type: cell-based; settings: Colletotrichum orbiculare, growth inhibition photometrically 3-4 days after application, vs untreated control
Description: as §1, with “(PDB potato dextrose” for “(Vogels”, “measured” for “determined”

[4] = tested on: Mycosphaerella graminicola (Septoria tritici); assay: Mycosphaerella graminicola (Septoria tritici) / liquid culture (Septoria blotch); type: cell-based; settings: Zymoseptoria tritici, growth inhibition photometrically 4-5 days after application, vs untreated control
Description: Mycosphaerella graminicola (Septoria tritici)/Liquid Culture (Septoria Blotch)
as §1, with “(PDB potato dextrose” for “(Vogels”, “4-5” for “3-4”

[5] = tested on: Monographella nivalis (Microdochium nivale); assay: Monographella nivalis (Microdochium nivale) / liquid culture (foot rot cereals); type: cell-based; settings: growth inhibition photometrically 4-5 days after application, vs untreated control
Description: Monographella nivalis (Microdochium nivale)/Liquid Culture (Foot Rot Cereals)
as §1, with “(PDB potato dextrose” for “(Vogels”, “4-5” for “3-4”

[6] = tested on: Sclerotinia sclerotiorum; assay: Sclerotinia sclerotiorum / liquid culture (cottony rot); type: cell-based; settings: growth inhibition photometrically 3-4 days after application, vs untreated control
Description: Sclerotinia sclerotiorum/Liquid Culture (Cottony Rot)
as §1, with “Mycelia fragments of a newly grown liquid culture” for “Conidia”, “fungus” for “fungus from cryogenic storage”, “format)” for “format),”, “material” for “spores”

[7] = tested on: Fusarium culmorum; assay: whole plant or invertebrate; type: in vivo, Fusarium culmorum on wheat spikelets cv. Monsun; settings: in Triticum aestivum, read-out: control of Fusarium culmorum
[8] = tested on: Fusarium culmorum; assay: microbe, parasite or virus in culture; type: cell-based; settings: read-out: control of Fusarium culmorum

C=C(Cl)C[C@@H](Cc1ccccc1)C(=O)Nc1cnc2c(F)cccc2c1C [Compound F-27, (2R)-2-benzyl-4-chloro-N-(8-fluoro-4-methyl-3-quinolyl)pent-4-enamide]
≥ 80%: inhibition of growth at 200 ppm [1] | inhibition of growth at 200 ppm [2] | inhibition of growth at 200 ppm [3] | inhibition of growth at 200 ppm [4] | inhibition of growth at 200 ppm [5]

Cc1c(NC(=O)[C@@H](Cc2ccccc2)CC2(C)CC2)cnc2c(F)cccc12 [Compound F-40, (2R)-2-benzyl-N-(8-fluoro-4-methyl-3-quinolyl)-3-(1-methylcyclopropyl)propanamide]
≥ 80%: inhibition of growth at 200 ppm [1] | inhibition of growth at 200 ppm [2] | inhibition of growth at 20 ppm [6] | inhibition of growth at 200 ppm [3] | inhibition of growth at 200 ppm [4] | inhibition of growth at 200 ppm [5] | pest or weed control at 200 ppm [7] | inhibition of growth at 200 ppm [8]
